Test results from patent US12703686B2, “4-Methoxy-2-phenethyl isoindoline-1-one derivative and composition for treating neurological diseases, comprising same” (CNG BIO CO., LTD., priority 2020, dated 2026).

What was measured:
BV2 cells (microglia) = test: NO production in LPS-stimulated BV2 cells (Griess reaction), antineuritic activity; type: cell-based; conditions: 10 NM, 100 ng/ml LPS for 24 hours, FIG. 13
Protocol: In order to confirm the change in NO production and the effect on cell viability when BV2 cells were treated with the compounds of the present invention, the following experiments were performed. L-NMMA (NG-monomethyl-L-arginine), an NO synthesis inhibitor, was used as a positive control group.
Analysis of NO production for evaluation of antineuritic activity BV2 cells (microglia) were dispensed in DMEM culture solution at a concentration of 6×10^4 cells/well in a 96 well plate, and then treated with the compounds of Formulas 6, 7, and 8 at a concentration of 10 NM, and incubated for 24 hours. After 24 hours, each sample was treated with a concentration of 10 NM, reacted for 1 hour, and then stimulated with 100 ng/ml of LPS for 24 hours. The production of nitrite, a soluble oxidation product of NO (nitric oxide), was measured in the culture medium through the Griess reaction.

C6 glioma cells = test: Ability to promote increase of nerve growth factor (NGF) in C6 glioma cells, ELISA; type: cell-based, Rat; conditions: 10 μM, 24 hours, FIG. 9
Protocol: In order to measure the amount of nerve growth factor (NGF) produced in the cell medium and to confirm the effect on cell viability when cells were treated with the compounds of the present invention, the following experiments were performed.
Rat astrocyte-derived C6 glioma cells were dispensed in DMEM culture solution at a concentration of 1×10^5 cells/well in a 24 well plate and stabilized overnight, and then treated with the compounds of Formulas 3, 6, 7, and 8 at a concentration of 10 μM, and reacted in a 37° C. incubator for 24 hours. The treated medium was collected and centrifuged, and then absorbance was measured using an enzyme linked immunoassay kit (ELISA kit).

Structure (SMILES)	NO production (nitrite) compared to untreated control group (BV2 cells (microglia))	nerve growth factor produced in the cell medium (C6 glioma cells)
COc1cc(O)c(CCO)c2c1CN(CCc1ccccc1)C2=O [Formula 6, 6-hydroxy-7-(2-hydroxyethyl)-4-methoxy-2-phenethyl isoindolin-1-one]	reduced	–
C=CCc1c(O)cc(OC)c2c1C(=O)N(CCc1ccccc1)C2 [Formula 3, 7-allyl-6-hydroxy-4-methoxy-2-phenethyl isoindolin-1-one]	–	significantly excellent
COc1cc(O)c(CCN(C)C)c2c1CN(CCc1ccccc1)C2=O [Formula 7, 7-(2-(dimethylamino)ethyl)-6-hydroxy-4-methoxy-2-phenethyl isoindolin-1-one]	reduced	significantly excellent
COc1cc(O)c(CCCO)c2c1CN(CCc1ccccc1)C2=O [Formula 8, 6-hydroxy-7-(3-hydroxypropyl)-4-methoxy-2-phenethyl isoindolin-1-one]	reduced	–
